Experimental data: PubChem BioAssay AID1963843 (Molecular Pharmacology Branch, DTP, NCI, 2024)

Test system: 616215-338-R-J1-PDC complex spheroid viability
Experiment: Anticancer human tumor 616215-338-R-J1-PDC patient-derived colon adenocarcinoma cell line growth inhibition [POLQ]
Settings: for IC50: curve of first compound; for viability, T/C: stronger effect = lower value
Method: Multicellular complex tumor spheroid response to Polymerase (POL) inhibitors (novobiocin, ART-558, RP6685) in combination with a variety of drugs and investigational agents in selected tumor cell lines
The POL inhibitors (novobiocin, ART-558, and RP6685) were evaluated both individually and in combination with standard of care and investigational anticancer small molecules within a complex spheroid model of solid tumors. . Complex spheroids include a stromal component modeled by human endothelial cells (HUVEC) and fibroblasts modeled by human mesenchymal stem cells (MSCs). The concentration ranges selected for each drug and investigational agent were based upon clinically achievable concentrations if the clinical Cmax of the agent was known.
Compounds. The drugs and investigational agents: novobiocin (NSC847541), ART-558 (NSC835418), RP-6685 (NSC848927), peposertib (NSC802822), ceralasertib (NSC780249), elimusertib (NSC800525), camonsertib (NSC841442), AZD-1390 (NSC803789), olaparib (NSC753686), talazoparib (NSC767125), rucaparib (NSC756644), sotorasib (NSC818433), MRTX-1133 (NSC836407), SN-38 (NSC673596), topotecan (NSC609699), epotoside (NSC141540), doxorubicin (NSC123127), gemcitabine (NSC613327), 5-fluorouracil (NSC19893), paclitaxel (NSC125973), vemurafenib (NSC761431), MSA-2 (NSC828583), SN-011 (NSC837082), adavosertib (NSC754352), prexasertib (NSC758257), carboplatin (NSC241240) and oxaliplatin (NSC266046), were obtained from the National Cancer Institute (NCI) Developmental Therapeutics Program Chemical Repository (21). The FDA-approved anticancer drug set is available from the Developmental Therapeutics Program at https://dtp.cancer.gov/organization/dscb/obtaining/. […] The stock solutions were prepared in dimethyl sulfoxide (DMSO, Sigma-Aldrich, St. Louis, MO, cat. D2650), except for the platinum compounds which were prepared in saline (Quality Biological, Gaithersburg, MD, cat. 114-055-101), at 800-fold the tested concentration and stored at -70 degrees C prior to their use. All drugs and investigational agents were tested over a range starting from a high concentration at or near the clinical Cmax and decreasing in half-log increments. If the clinical Cmax for an agent had not been determined, the highest concentration tested was 10 microM, except for SN-38, which was tested at a high concentration of 1 microM.
Cell Culture. All cells were maintained in an incubator at 37 degrees C and 5% CO2 with 95% humidity. The PDC lines were cultured according to standard operating procedures established by the NCI PDMR (https://pdmr.cancer.gov). Table 3 of the manuscript, lists the cell lines along with the number of the three cell types plated to form the mct-spheroids and media for tumor cell growth. After thawing, all PDC lines, except 997537-175-T-J1-PDC and 415267-285-R-J2-PDC, were cultured in Matrigel-coated flasks prepared with a working solution of 1X Ham's F-12 nutrient mix, without supplementation (Thermo Fisher Scientific, cat. 11765054), 100 U/mL penicillin-streptomycin (Thermo Fisher Scientific, cat. 15140122), and 2.5% Matrigel (Corning Inc., Corning, NY, cat. 354248) for the first three passages. The two PDC lines 997537-175-T-J1-PDC and 415267-285-R-J2-PDC were cultured on uncoated flasks. The 857933-349-R-J2-PDC line was cultured in 6C/Colon 1B media containing advanced DMEM/F-12 (Thermo Fisher Scientific, cat. 12634028), 10 mM HEPES (Thermo Fisher Scientific, cat. 15630080), 1X GlutaMAX supplement (Thermo Fisher Scientific, cat. 35050061), 0.1 mg/mL primocin (InvivoGen, San Diego, CA, cat. ant-pm-2), 10% defined fetal bovine serum, heat inactivated (HyClone Laboratories Inc., Logan, UT, cat. SH30070.03HI), 50% L-WRN conditioned media (ATCC, cat. CRL-3276), 1.25 mM N-Acetyl-L-cysteine (Sigma-Aldrich, cat. A9165), 10 mM nicotinamide (Sigma-Aldrich, cat. N0636), 1X B-27 supplement (Thermo Fisher Scientific, cat. 17504044), 1X N-2 supplement (Thermo Fisher Scientific, cat. […]

[1] = second compound 0.0316 µM, first compound 0.0316 µM
[2] = second compound 0.0316 µM, first compound 0.1 µM
[3] = second compound 0.0316 µM, first compound 0.316 µM
[4] = second compound 0.0316 µM, first compound 1 µM
[5] = second compound 0.1 µM, first compound 0.0316 µM
[6] = second compound 0.1 µM, first compound 0.1 µM
[7] = second compound 0.1 µM, first compound 0.316 µM
[8] = second compound 0.1 µM, first compound 1 µM
[9] = second compound 0.316 µM, first compound 0.0316 µM
[10] = second compound 0.316 µM, first compound 0.1 µM
[11] = second compound 0.316 µM, first compound 0.316 µM
[12] = second compound 0.316 µM, first compound 1 µM
[13] = second compound 1 µM, first compound 0.0316 µM
[14] = second compound 1 µM, first compound 0.1 µM
[15] = second compound 1 µM, first compound 0.316 µM
[16] = second compound 1 µM, first compound 1 µM
[17] = second compound 3.16 µM, first compound 0.0316 µM
[18] = second compound 3.16 µM, first compound 0.1 µM
[19] = second compound 3.16 µM, first compound 0.316 µM
[20] = second compound 3.16 µM, first compound 1 µM
[21] = second compound 10 µM, first compound 0.0316 µM
[22] = second compound 10 µM, first compound 0.1 µM
[23] = second compound 10 µM, first compound 0.316 µM
[24] = second compound 10 µM, first compound 1 µM
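Also: spheroids exposed to compounds for one week before readout.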
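For viability, T/C in this document: percent viability relative to DMSO vehicle wells taken as 100%.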

CC1COCCN1c1cc(C2(O)CC3CCC(C2)O3)c2cnn(-c3ccn[nH]3)c2n1 (stereo unspecified) + Cc1cccc(N(C)C(=O)C2C(O)CCN2c2nc(C)cc(C(F)(F)F)c2C#N)c1
IC50 (second compound 0.0316 µM): 3910 nM
IC50 (second compound 0.1 µM): 2950 nM
IC50 (second compound 0.316 µM): 2750 nM
IC50 (second compound 1 µM): 3780 nM
IC50 (second compound 3.16 µM): 4300 nM
IC50 (second compound 10 µM): 1400 nM
viability, T/C [1]: 98.1%
viability, T/C [2]: 102%
viability, T/C [3]: 76.6%
viability, T/C [4]: 65.3%
viability, T/C (second compound 0.0316 µM, first compound 3.16 µM): 56.2%
viability, T/C (second compound 0.0316 µM, first compound 10 µM): 38.9%
viability, T/C [5]: 101%
viability, T/C [6]: 99.1%
viability, T/C [7]: 76.2%
viability, T/C [8]: 71.7%
viability, T/C (second compound 0.1 µM, first compound 3.16 µM): 46.5%
viability, T/C (second compound 0.1 µM, first compound 10 µM): 33.6%
viability, T/C [9]: 106%
viability, T/C [10]: 103%
viability, T/C [11]: 74.9%
viability, T/C [12]: 61.4%
viability, T/C (second compound 0.316 µM, first compound 3.16 µM): 53.5%
viability, T/C (second compound 0.316 µM, first compound 10 µM): 33.6%
viability, T/C [13]: 105%
viability, T/C [14]: 94.7%
viability, T/C [15]: 74.2%
viability, T/C [16]: 70%
viability, T/C (second compound 1 µM, first compound 3.16 µM): 57.9%
viability, T/C (second compound 1 µM, first compound 10 µM): 33%
viability, T/C [17]: 106%
viability, T/C [18]: 92%
viability, T/C [19]: 71.1%
viability, T/C [20]: 71.8%
viability, T/C (second compound 3.16 µM, first compound 3.16 µM): 58.1%
viability, T/C (second compound 3.16 µM, first compound 10 µM): 36.6%
viability, T/C [21]: 105%
viability, T/C [22]: 94.6%
viability, T/C [23]: 68.8%
viability, T/C [24]: 53.4%
viability, T/C (second compound 10 µM, first compound 3.16 µM): 44%
viability, T/C (second compound 10 µM, first compound 10 µM): 30.8%

COc1cccc(OCCCN)c1-c1cc(Nc2cnc(C#N)cn2)n[nH]1 + Cc1cccc(N(C)C(=O)C2C(O)CCN2c2nc(C)cc(C(F)(F)F)c2C#N)c1
IC50 (second compound 0.0316 µM): 92.9 nM
IC50 (second compound 0.1 µM): 62.2 nM
IC50 (second compound 0.316 µM): 58.3 nM
IC50 (second compound 1 µM): 53.8 nM
IC50 (second compound 3.16 µM): 56.1 nM
IC50 (second compound 10 µM): 37.4 nM
viability, T/C (second compound 0.0316 µM, first compound 0.00316 µM): 94.8%
viability, T/C (second compound 0.0316 µM, first compound 0.01 µM): 89.4%
viability, T/C [1]: 73.1%
viability, T/C [2]: 47.9%
viability, T/C [3]: 38.9%
viability, T/C [4]: 35.3%
viability, T/C (second compound 0.1 µM, first compound 0.00316 µM): 107%
viability, T/C (second compound 0.1 µM, first compound 0.01 µM): 97.8%
viability, T/C [5]: 57.3%
viability, T/C [6]: 47.8%
viability, T/C [7]: 34.3%
viability, T/C [8]: 29.9%
viability, T/C (second compound 0.316 µM, first compound 0.00316 µM): 99%
viability, T/C (second compound 0.316 µM, first compound 0.01 µM): 86.1%
viability, T/C [9]: 61.7%
viability, T/C [10]: 38.3%
viability, T/C [11]: 37%
viability, T/C [12]: 29.3%
viability, T/C (second compound 1 µM, first compound 0.00316 µM): 108%
viability, T/C (second compound 1 µM, first compound 0.01 µM): 89.9%
viability, T/C [13]: 56.1%
viability, T/C [14]: 41.3%
viability, T/C [15]: 35.8%
viability, T/C [16]: 26.7%
viability, T/C (second compound 3.16 µM, first compound 0.00316 µM): 86.8%
viability, T/C (second compound 3.16 µM, first compound 0.01 µM): 82.9%
viability, T/C [17]: 60.4%
viability, T/C [18]: 38.4%
viability, T/C [19]: 43.8%
viability, T/C [20]: 29.1%
viability, T/C (second compound 10 µM, first compound 0.00316 µM): 104%
viability, T/C (second compound 10 µM, first compound 0.01 µM): 81.3%
viability, T/C [21]: 47.5%
viability, T/C [22]: 38.3%
viability, T/C [23]: 34.7%
viability, T/C [24]: 21.2%

CC(=O)O[C@H]1C(=O)[C@@]2(C)[C@H]([C@H](OC(=O)c3ccccc3)[C@]3(O)C[C@H](OC(=O)[C@H](O)[C@@H](NC(=O)c4ccccc4)c4ccccc4)C(C)=C1C3(C)C)[C@]1(OC(C)=O)CO[C@@H]1C[C@@H]2O + Nc1ccc(C#CCN(C(=O)Cc2ncc(C(F)(F)F)cc2C(F)(F)F)c2ccc(F)cc2)nn1
IC50 (second compound 0.0316 µM): < 9.49 nM
IC50 (second compound 0.1 µM): < 9.49 nM
IC50 (second compound 0.316 µM): < 9.49 nM
IC50 (second compound 1 µM): < 9.49 nM
IC50 (second compound 3.16 µM): < 9.49 nM
IC50 (second compound 10 µM): < 9.49 nM
viability, T/C (second compound 0.0316 µM, first compound 0.00949 µM): 38.1%
viability, T/C (second compound 0.0316 µM, first compound 0.03 µM): 25.5%
viability, T/C (second compound 0.0316 µM, first compound 0.0949 µM): 22.9%
viability, T/C (second compound 0.0316 µM, first compound 0.3 µM): 18.4%
viability, T/C (second compound 0.0316 µM, first compound 0.949 µM): 16.6%
viability, T/C (second compound 0.0316 µM, first compound 3 µM): 17.7%
viability, T/C (second compound 0.1 µM, first compound 0.00949 µM): 50%
viability, T/C (second compound 0.1 µM, first compound 0.03 µM): 24.6%
viability, T/C (second compound 0.1 µM, first compound 0.0949 µM): 21.3%
viability, T/C (second compound 0.1 µM, first compound 0.3 µM): 17.4%
viability, T/C (second compound 0.1 µM, first compound 0.949 µM): 17.6%
viability, T/C (second compound 0.1 µM, first compound 3 µM): 19%
viability, T/C (second compound 0.316 µM, first compound 0.00949 µM): 42.3%
viability, T/C (second compound 0.316 µM, first compound 0.03 µM): 22.4%
viability, T/C (second compound 0.316 µM, first compound 0.0949 µM): 20.9%
viability, T/C (second compound 0.316 µM, first compound 0.3 µM): 19.1%
viability, T/C (second compound 0.316 µM, first compound 0.949 µM): 16.8%
viability, T/C (second compound 0.316 µM, first compound 3 µM): 14.8%
viability, T/C (second compound 1 µM, first compound 0.00949 µM): 41.1%
viability, T/C (second compound 1 µM, first compound 0.03 µM): 25%
viability, T/C (second compound 1 µM, first compound 0.0949 µM): 24.1%
viability, T/C (second compound 1 µM, first compound 0.3 µM): 26.1%
viability, T/C (second compound 1 µM, first compound 0.949 µM): 14%
viability, T/C (second compound 1 µM, first compound 3 µM): 16.6%
viability, T/C (second compound 3.16 µM, first compound 0.00949 µM): 30.2%
viability, T/C (second compound 3.16 µM, first compound 0.03 µM): 22.1%
viability, T/C (second compound 3.16 µM, first compound 0.0949 µM): 22.4%
viability, T/C (second compound 3.16 µM, first compound 0.3 µM): 20.2%
viability, T/C (second compound 3.16 µM, first compound 0.949 µM): 16.5%
viability, T/C (second compound 3.16 µM, first compound 3 µM): 15.1%
viability, T/C (second compound 10 µM, first compound 0.00949 µM): 36.9%
viability, T/C (second compound 10 µM, first compound 0.03 µM): 25%
viability, T/C (second compound 10 µM, first compound 0.0949 µM): 23.3%
viability, T/C (second compound 10 µM, first compound 0.3 µM): 18.4%
viability, T/C (second compound 10 µM, first compound 0.949 µM): 18.1%
viability, T/C (second compound 10 µM, first compound 3 µM): 21.6%
